Columns and labels:
BxPC3 cells = test: Proliferation assay, cell counting under chronic obestatin treatment; type: cell-based, human
Protocol: (§1) PANC1 cell line was obtained from ECACC (87092802; ECACC, Wiltshire, UK). RWP1 and BxPC3 human pancreatic cancer cell lines were kindly provided by FX Real (Epithelial Carcinogenesis Group, Cancer Cell Biology Programme, Spanish National Cancer Research Centre-CNIO, Madrid, ES). In brief, PANC1 cells were cultured in DMEM (supplemented with 4.5 g/L glucose, 10% FBS, and 1% penicillin/streptomycin), RWP1 and BxPC3 cell lines were maintained in RPMI (supplemented with 10% FBS and 1% penicillin/streptomycin) and incubated in an atmosphere containing 5% CO2 at 37° C. These cells were periodically tested and resulted negative for mycoplasma contamination.
(§2) For the analysis of proliferation the cells were seeded on 12-well plates at an amount of 50,000 cells per well and maintained for 24 h in culture media (see above) to allow attachment. The medium was completely removed and replaced with serum-free media for additional 24 h. Then, cells were treated or not with different doses of obestatin: mouse obestatin (corresponding to SEQ ID NO: 4) for KPC FC1242 and human obestatin (corresponding to SEQ ID NO: 1) for PANC1, RWP1 and BxPC3. The following treatments were used: 0% FBS as negative control, 10% FBS as positive control, 100 nM obestatin, 200 nM obestatin, 100 nM obestatin+10% FBS, and 200 nM obestatin+10% FBS. These treatments were administered every 24 h for three days. Twenty-four h after the last treatment, the cells were trypsinized and manually counted with a Neubauer camera.
(§3) The total cells were calculated using the following equations counting 10 squares: […]
(§4) In all cases, each experiment point was replicated eight times.

PANC1 cells = test: as above; type: cell-based, human
Protocol: as §1, §2, §3, §4

RWP1 cells = test: as above; type: cell-based, human
Protocol: as §1, §2, §3, §4

[1] = test system: KPC FC1242 cells injected in the pancreas; test: Orthotopic syngeneic mice model of pancreatic cancer: tumour growth; type: in vivo, C57BL/6J mice
Protocol: FIG. 2. Schematic representation of an orthotopic syngeneic mice model established for the determination of obestatin action on tumoral development. In brief, KPC FC1242 (1×10E6) cells were injected in the pancreas of C57BL/6J mice. After nine days of tumoral growing, the mice were randomly assigned to the different groups (n=4/group) and treated with vehicle [NaCl, 0.9% (w/v)] or obestatin (500 nmol/Kg/72 h) via ALZET® osmotic micropumps for five days. Mice without tumoral cells treatment were utilized as healthy controls.
FIG. 3. Effect of obestatin treatment on tumoral growing. The KPC FC1242 cells (1×10E6) were injected into the pancreas of C57BL/6J mice. After nine days of tumour post-injection, mice were treated with vehicle [NaCl, 0.9% (w/v)] or obestatin (500 nmol/Kg/72 h) via ALZET® osmotic micropumps for five days. Mice without tumoral cells treatment were utilized as healthy controls (n=4). Pancreases/tumours were collected, measured and weighted at day 14 after tumour implantation. Results are expressed as mean mean±SE (*, #, P<0.05). […]
Day 1: Implantation of KPC FC1242 Cells into Mouse Pancreas • 1. […] The cells were kept cold, on ice, until ready to inject. • 2. […] The mouse was monitored until no longer mobile and breathing has slowed. […] Then, the mouse was ready for hair removal. • 3. […]

[2] = 100 nM obestatin+10% FBS each 24 h for 72 h
[3] = human obestatin (SEQ ID NO: 1) 100 nM each 24 h for 72 h, serum-free

## obestatin
BxPC3 cells; [2]
  effect on FBS-mediated proliferation: significant inhibitory effect
BxPC3 cells; [3]
  proliferation (number of cells): does not activate the proliferation
PANC1 cells; [2]
  effect on FBS-mediated proliferation: significant inhibitory effect
PANC1 cells; [3]
  proliferation (number of cells): does not activate the proliferation
RWP1 cells; [2]
  effect on FBS-mediated proliferation: significant inhibitory effect
RWP1 cells; [3]
  proliferation (number of cells): does not activate the proliferation
[1]; mouse obestatin 500 nmol/Kg/72 h via osmotic micropumps for five days, from day 9 after tumour injection
  reduction in the pancreatic tumour growing in weight: 35.8±6.9%
[1]; obestatin-treated group, 500 nmol/Kg/72 h
  size and weight of tumours vs control or vehicle-treated groups: significantly smaller

From US20260273020A1, “OBESTATIN FOR USE AS ANTINEOPLASTIC AGENT IN THE TREATMENT OF PANCREATIC CANCER” (SERVIZO GALEGO DE SAÚDE, priority 2023, published 2026)
